Earlier results, collected in patent US11147777B1, “Methods and formulations for efficacious pain relief by transdermal delivery of cannabidiol” (CHARLOTTE'S WEB, INC., priority 2017, dated 2021).

Target: T1, mTRPM8 (Mus musculus, UniProt Q8R4D5)
T1 construct: expressed in transfected cells; host or cells: HEK293
Details: normalized to the efficacy of icilin, as disclosed by Behrendt et al.

T1 sequence (Q8R4D5 whole entry): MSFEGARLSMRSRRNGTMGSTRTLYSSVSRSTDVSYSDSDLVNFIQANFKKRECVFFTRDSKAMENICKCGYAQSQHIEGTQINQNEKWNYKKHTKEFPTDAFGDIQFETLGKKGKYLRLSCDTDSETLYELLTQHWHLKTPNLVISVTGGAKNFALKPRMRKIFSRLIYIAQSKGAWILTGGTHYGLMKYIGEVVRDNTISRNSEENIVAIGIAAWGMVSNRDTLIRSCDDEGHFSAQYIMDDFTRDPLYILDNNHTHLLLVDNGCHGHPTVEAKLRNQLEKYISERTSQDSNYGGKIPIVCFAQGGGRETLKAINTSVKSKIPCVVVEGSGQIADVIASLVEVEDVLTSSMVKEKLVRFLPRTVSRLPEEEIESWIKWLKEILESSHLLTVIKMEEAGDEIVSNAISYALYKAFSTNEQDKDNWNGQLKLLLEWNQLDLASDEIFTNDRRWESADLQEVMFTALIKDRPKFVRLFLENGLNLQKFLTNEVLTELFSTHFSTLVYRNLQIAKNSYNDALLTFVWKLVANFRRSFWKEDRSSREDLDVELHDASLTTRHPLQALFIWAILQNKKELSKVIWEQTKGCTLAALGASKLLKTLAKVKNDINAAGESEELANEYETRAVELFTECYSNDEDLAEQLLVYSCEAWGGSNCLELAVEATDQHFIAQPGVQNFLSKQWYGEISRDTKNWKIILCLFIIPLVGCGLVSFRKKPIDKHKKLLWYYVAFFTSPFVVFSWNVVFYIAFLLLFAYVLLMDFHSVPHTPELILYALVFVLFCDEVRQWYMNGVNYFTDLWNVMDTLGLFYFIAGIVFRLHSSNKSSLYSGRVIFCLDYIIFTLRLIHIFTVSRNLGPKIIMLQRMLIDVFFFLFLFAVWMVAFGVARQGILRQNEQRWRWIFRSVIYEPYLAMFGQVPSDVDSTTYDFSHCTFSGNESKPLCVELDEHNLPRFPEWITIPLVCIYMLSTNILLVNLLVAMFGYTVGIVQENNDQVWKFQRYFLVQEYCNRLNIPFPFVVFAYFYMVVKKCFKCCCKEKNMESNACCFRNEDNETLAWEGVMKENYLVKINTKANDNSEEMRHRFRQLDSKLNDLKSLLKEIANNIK

Compound: CC1CCC(C(C)C)C(O)C1 (stereo not shown) [menthol]
- relative efficacy as TRPM8 agonist on icilin-normalized scale (100 menthol = 70 icilin): 70
